Results: patent publication US5672358A (priority 1995, dated 1997)
“Also recorded” adds a separate entry of the source.

Assay: pH dependent solubility of drug or wax

COc1cc(Cc2cnc(N)nc2N)cc(OC)c1OC [trimethoprim]
solubility: more soluble at acidic pH values; also recorded: the solubility of the two drugs is pH dependent
